# Laboratory results: patent publication US8232248B2, “Treatment of rheumatoid arthritis with mammal beta defensins” (Novozymes Adenium Biotech A/S, priority 2008, dated 2012)
# What was measured:
# [1] = test system: PBMC; test: PBMC viability, Alamar Blue; format: cell-based, human; details: 40 μg/ml
# Method: (§1) Peripheral blood was drawn from healthy volunteers (with approval from the relevant ethical committee in Denmark). Heparinized blood was diluted 1/1 v/v with RPMI and were subjected to Ficoll density centrifugation within 2 h of drawing. Plasma was collected from the top from individual donors and was kept on ice until it was used at 2% in the culture medium (autologous culture medium). Isolated PBMC were resuspended in autologous culture medium and seeded in 96-well culture plates with 255.000 cells per well in a total of 200 μl. […] The concentrations used for stimulation were optimized on 3 different donors in initial experiments, for LPS two different concentrations were used to be sure to be on a cytokine level that is possible to modulate. In some experiments PBMC were treated with Dexamethason and Indomethacin alone and together with LPS or LTA as a control on downregulation of inflammatory cytokines. The supernatants were collected after incubation at 37° C. for 24 hours, and stored at −80° C. until cytokine measurement. Viability was measured by Alamar Blue (Biosource, DALL 1100) in all experiments and in some cases also by MTS (Promega) according to manufacturer's instruction and was in some experiments also judged by counting of the cells by a Nucleocounter.
# [2] = test system: TNF production from human peripheral blood mononuclear cells (PBMC); test: TNF production from PBMC stimulated with LPS, LTA, PGN or Pam3CSK4, 24 h, Cytometric Bead Array; format: cell-based; details: Table 18; for TNF: Medium, non-treated 1
# Method: as §1
# (§2) Cytokine production in supernatants was measured by flow cytometry with a human inflammation cytometric bead array (CBA) according to manufacturer's instructions (BD) on a FACSarray flow cytometer. The following cytokines were measured: IL-8, IL-1β, IL-10, TNF, IL-12 p70, IL-6. In some experiments, cytokines were measured by ELISA kits from R&D systems (IL-10, TNF-α, IL-1β) according to the manufacturer' instruction.
# (§3) All experiments were performed at least twice, with representative results shown. The data presented are expressed as mean plus/minus standard deviation (SD). […] Differences were considered significant for p<0.05.
# Example 3 was carried out essentially as described in Example 2. […]
# [3] = test system: IL-10 production from human peripheral blood mononuclear cells (PBMC); test: IL-10 production from PBMC stimulated with LPS, LTA or PGN, 24 h, Cytometric Bead Array; format: cell-based; details: Table 19
# Method: as §1, §2, §3
# [4] = test system: IL-1β production from human peripheral blood mononuclear cells (PBMC); test: IL-1β production from PBMC stimulated with LPS or LTA, 24 h, Cytometric Bead Array; format: cell-based; details: Table 20
# Method: as §1, §2, §3
# [5] = test compound 1 μg/ml, LPS 0.6 ng/ml
# [6] = test compound 1 μg/ml, LPS 20 ng/ml
# [7] = test compound 10 μg/ml, LPS 0.6 ng/ml
# [8] = test compound 10 μg/ml, LPS 20 ng/ml
# [9] = test compound 1 μg/ml, Medium, non-treated 0
# [10] = test compound 10 μg/ml, Medium, non-treated 0
substance,measurement,setting,value
"hBD4 variant: consists of amino acids 3-39 of hBD4, SEQ ID NO:5 (ELDRICGYGTARCRKKCRSQEYRIGRCPNTYACCLRK; hBD-4 variant consisting of amino acids 3-39 of SEQ ID NO4)",Toxicity to the cells,[1],toxic to the cells
same,TNF % of control,[2]; [5],64%
same,TNF % of control,[2]; [6],36%
same,TNF,[2]; test compound 1 μg/ml,0 pg/mL
same,TNF % of control,[2]; [7],29%
same,TNF % of control,[2]; [8],6%
same,TNF,[2]; test compound 10 μg/ml,0 pg/mL
same,Secretion of IL-10,[3]; PBMC with LPS,significantly and dose-dependently enhanced
same,IL-10,"[3]; test compound 1 μg/ml, LPS 0.6 ng/ml, non-treated 66",90 pg/mL
same,IL-10,[3]; [9],0 pg/mL
same,IL-10,"[3]; test compound 10 μg/ml, LPS 0.6 ng/ml, non-treated 66",92 pg/mL
same,IL-10,[3]; [10],0 pg/mL
same,IL-1β % of control,[4]; [5],39%
same,IL-1β,"[4]; test compound 1 μg/ml, LPS 0.6 ng/ml, non-treated 741",286 pg/mL
same,IL-1β % of control,[4]; [6],40%
same,IL-1β,"[4]; test compound 1 μg/ml, LPS 20 ng/ml, non-treated 2544",1004 pg/mL
same,IL-1β,[4]; [9],0 pg/mL
same,IL-1β % of control,[4]; [7],22%
same,IL-1β,"[4]; test compound 10 μg/ml, LPS 0.6 ng/ml, non-treated 741",163 pg/mL
same,IL-1β % of control,[4]; [8],18%
same,IL-1β,"[4]; test compound 10 μg/ml, LPS 20 ng/ml, non-treated 2544",463 pg/mL
same,IL-1β,[4]; [10],0 pg/mL
